Consider 13 compounds from ChEMBL document CHEMBL1201862, “PubChem BioAssay data set” (2004).

The structures appear in SMILES notation.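 Step 1: Grow cells in 96-well plates. Step 2: Expose to compound for 48 hours at 5 concentrations. Step 3: Interpolate endpoints linearly; if unreached, use highest concentration. GI50: concentration for 50% inhibition of growth.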 Activity calls are given as the source filed them. No stated cut-off is given here; in the data, active = GI50 up to about 1.1 µM and inactive = higher.

Holding throughout (experiment): inhibition of tumour cell growth, NCI panel, 48 h
Assay [1] relates to Malme-3M.
For assay [2], the system named is SNB-75.
Assay [3] concerns IGROV-1.
Assay [4] deals with OVCAR-8.
Assay [5] has as its system TK-10.
Assay [6] concerns UO-31.
Assay [7] relates to HCT-116.
For assay [8], the system named is DLD-1.
In assay [9] the test system is RPMI-8226.
For assay [10], the system named is UACC-62.
The subject of assay [11] is UACC-257.
Assay [12] concerns SK-MEL-28.
Assay [13] deals with SNB-19.
Assay [14] has as its system U-251.
For assay [15], the system named is SK-MEL-2.
Assay [16] has as its system CAKI-1.
The test system of assay [17] is MDA-MB-231.
Assay [18] has as its system MDA-MB-435.
Assay [19] concerns Hs-578T.
In assay [20] the test system is BT-549.

`CCCCc1c2c(nc3c1CCc1cc4cc5c(nc4nc1-3)-c1nc3c(c(CCCC)c1CC5)CCCC3)CCCC2`: the GI50 is 38.6 µM (inactive) in assay [1]; 49.9 µM (inactive) in [2]; 38.5 µM (inactive) in [3]; 39.6 µM (inactive) in [4]; 26.9 µM (inactive) in assay [5]; 68.5 µM (inactive) in [6]. Besides, the GI50 in assay [7] was 34.5 µM (inactive); in assay [8] it was 59.8 µM (inactive); in [9], 27 µM (inactive); in assay [10], 19.6 µM (inactive); in assay [11], 59.8 µM (inactive); in assay [12] it was 69.5 µM (inactive). Moreover, the GI50 in assay [13] was 34.4 µM (inactive); in assay [14] it was 31.8 µM (inactive).
Take `CCSC1(SCC)CCN(/C=N/C(C)(C)C)C1`: the GI50 in [1], in assay [2], in [3], in assay [4], in assay [5] and in assay [6] was > 100 µM (inactive) each time. Further, the GI50 in assay [7] was 78 µM (inactive); in assay [15], > 100 µM (inactive); in assay [8], 62.4 µM (inactive); in assay [10], > 100 µM (inactive); in assay [11], > 100 µM (inactive); in assay [12], > 100 µM (inactive). In addition, the GI50 in assay [16], in [13] and in assay [14] was > 100 µM (inactive) each time.
Turning to `CC(C)(C)C(=O)CC(=O)C(C)(C)C.CC(C)(C)C(=O)CC(=O)C(C)(C)C.[SiH4]`, the GI50 is 6.12 µM (inactive) in assay [1]; 0.719 µM (active) in assay [2]; 1.47 µM (inactive) in assay [3]; 2.92 µM (inactive) in assay [4]; 3.4 µM (inactive) in [5]; 1.99 µM (inactive) in assay [6]. The GI50 in [7] is 1.26 µM (inactive); in [8] it was 0.436 µM (active); in [9], 0.299 µM (active); in assay [10], 2.99 µM (inactive); in assay [11] it was 2.44 µM (inactive); in [12], 3.15 µM (inactive). Also, the GI50 is 0.579 µM (active) in assay [16], 1.96 µM (inactive) in [13] and 0.596 µM (active) in [14].
Take `CC(O[Si](C)(C)C)C1C=CC(C)n2c(=O)n(-c3ccccc3)c(=O)n21` (stereo unspecified): the GI50 in assay [1], in [3], in [4], in assay [5], in [6] and in [7] was > 100 µM (inactive) in each case. For the same compound, the GI50 in [15], in assay [8], in assay [9], in [10], in assay [12] and in assay [16] was > 100 µM (inactive) throughout. For the same compound, the GI50 in assay [13] and in assay [14] was > 100 µM (inactive) throughout.
Turning to `CCCC12Cc3c(OC)ccc(OC)c3CC(Cc3c(OC)ccc(OC)c31)C2=O` (stereo unspecified), the GI50 in assay [1] is 69.3 µM (inactive); in assay [2], > 100 µM (inactive); in [4], > 100 µM (inactive); in assay [5], > 100 µM (inactive); in [6], > 100 µM (inactive); in assay [7] it was 10.8 µM (inactive). The GI50 is > 100 µM (inactive) in assay [15]; > 100 µM (inactive) in assay [8]; > 100 µM (inactive) in assay [11]; > 100 µM (inactive) in assay [12]; 9.64 µM (inactive) in [16]; > 100 µM (inactive) in assay [13]. The GI50 in assay [14] is > 100 µM (inactive).
Take `Cc1ccc(S(=O)(=O)N/N=C(/CC(=O)c2c(C)[n+]([O-])c3ccccc3[n+]2[O-])C(=O)Nc2ccccc2C)cc1`: the GI50 in [1] is > 100 µM (inactive); in [2], 31.2 µM (inactive); in assay [3], > 100 µM (inactive); in [6], > 100 µM (inactive); in assay [7] it was > 100 µM (inactive); in [15] it was > 100 µM (inactive). For the same compound, the GI50 in assay [8], in assay [9], in assay [10], in assay [11], in [12] and in assay [16] was > 100 µM (inactive) throughout. Besides, the GI50 in [13] and in assay [14] was > 100 µM (inactive) in each case.
On to `Cc1cc2c(=O)cc(-c3cccs3)oc2c(C(=O)O)c1C`, for which the GI50 in assay [1] is > 100 µM (inactive); in [2], 1.56 µM (inactive); in [3] it was > 100 µM (inactive); in assay [4], > 100 µM (inactive); in [5], > 100 µM (inactive); in assay [6] it was > 100 µM (inactive). Further, the GI50 is > 100 µM (inactive) in assay [7]; > 100 µM (inactive) in assay [15]; > 100 µM (inactive) in assay [8]; 59.3 µM (inactive) in assay [9]; > 100 µM (inactive) in assay [10]; > 100 µM (inactive) in [11]. Moreover, the GI50 in assay [12], in assay [13] and in assay [14] was > 100 µM (inactive) throughout.
In the case of `Cc1cccc2c1NC(c1c(C)[nH]c3ccccc13)C2` (stereo unspecified), the GI50 in [1] is > 100 µM (inactive); in assay [2], > 100 µM (inactive); in assay [3], 33.4 µM (inactive); in assay [4], > 100 µM (inactive); in assay [5], > 100 µM (inactive); in assay [6], 64.4 µM (inactive). Further, the GI50 in assay [7] was > 100 µM (inactive); in assay [15], > 100 µM (inactive); in assay [8] it was > 100 µM (inactive); in assay [9], > 100 µM (inactive); in [10], 78.2 µM (inactive); in assay [11], > 100 µM (inactive). The GI50 in assay [12], in assay [13] and in assay [14] was > 100 µM (inactive) each time.
On to `COC12OCCN(C)C1=CC(=O)C1(C)N=NCC12` (stereo unspecified), for which the GI50 in [1], in [2], in assay [3], in assay [4], in assay [5] and in assay [6] was > 100 µM (inactive) throughout. For the same compound, the GI50 in [7], in assay [8], in [9], in [10], in [11] and in [12] was > 100 µM (inactive) in each case. Further, the GI50 in assay [16] and in assay [14] was > 100 µM (inactive) throughout.
Turning to `O=c1[nH]c2nc3ccccc3c(=O)n2/c1=C/c1cccs1`, the GI50 is > 100 µM (inactive) in assay [1]; 20.5 µM (inactive) in assay [2]; > 100 µM (inactive) in assay [3]; > 100 µM (inactive) in [4]; > 100 µM (inactive) in assay [17]; > 100 µM (inactive) in assay [5]. The GI50 is > 100 µM (inactive) in assay [6]; > 100 µM (inactive) in assay [18]; > 100 µM (inactive) in assay [7]; > 100 µM (inactive) in assay [15]; 67 µM (inactive) in [19]; > 100 µM (inactive) in assay [9]. Also, the GI50 in assay [10], in assay [11], in assay [12], in assay [16], in assay [20] and in assay [13] was > 100 µM (inactive) throughout. Further, the GI50 in [14] is > 100 µM (inactive).
In the case of `C=C1c2[nH]c3c([N+](=O)[O-])c(OC)ccc3c2CCN1C(C)=O`, the GI50 in [2] was 25 µM (inactive); in [3], > 100 µM (inactive); in assay [4] it was > 100 µM (inactive); in [5], > 100 µM (inactive); in assay [6] it was > 100 µM (inactive); in [7], > 100 µM (inactive). Also, the GI50 was > 100 µM (inactive) in assay [15]; 22.1 µM (inactive) in assay [8]; > 100 µM (inactive) in [9]; 61.9 µM (inactive) in assay [10]; > 100 µM (inactive) in [11]; > 100 µM (inactive) in [12]. For the same compound, the GI50 was 21.6 µM (inactive) in assay [16], > 100 µM (inactive) in assay [13] and > 100 µM (inactive) in [14].
Take `CCOc1cc[n+]([C-](C#N)C#N)cc1`: the GI50 in assay [1], in assay [2], in assay [3], in assay [4], in [5] and in assay [6] was > 100 µM (inactive) throughout. Besides, the GI50 in [7], in assay [8], in assay [9], in [10], in assay [11] and in [16] was > 100 µM (inactive) in each case. The GI50 in [13] and in [14] was > 100 µM (inactive) in each case.
Turning to `CC(C)Cn1cnc2c(NCC(C)O)nc3ccccc3c21` (stereo unspecified), the GI50 in [1] was 74.3 µM (inactive); in [2] it was 56.1 µM (inactive); in assay [3], 36.8 µM (inactive); in assay [4] it was > 100 µM (inactive); in [17] it was > 100 µM (inactive); in [5], 91.4 µM (inactive). In addition, the GI50 in assay [6] was 38.9 µM (inactive); in [18], > 100 µM (inactive); in [7], 42.5 µM (inactive); in assay [15], > 100 µM (inactive); in assay [19], 45.7 µM (inactive); in assay [9], > 100 µM (inactive). For the same compound, the GI50 was 52.2 µM (inactive) in assay [10]; > 100 µM (inactive) in assay [11]; > 100 µM (inactive) in assay [12]; 66.4 µM (inactive) in assay [16]; > 100 µM (inactive) in [20]; > 100 µM (inactive) in assay [13]. In assay [14], the GI50 was > 100 µM (inactive).
